Source: patent publication US20150315188A1, “COMPOUNDS AND METHODS FOR TREATMENT OF HYPERTENSION” (MEDIVATION TECHNOLOGIES, INC., priority 2012, published 2015)
Several values for one entry are separate records, joined by “and”; a condition that tells them apart may be missing. Identical values can stand only once.

How the values were obtained:
Design in all cases: purchased Milipore (Millipore)
[1] = target: T1, Human adrenergic α2B receptor (Homo sapiens, UniProt P18089); test: Radioligand binding, adrenergic α2B (Protocol Group B); conditions: Protocol Group B; for Percentage inhibition of ligand binding, Adrenergic α2B (10 nM) / inhibition at 0.01 µM: 10 nM compound; for Percentage inhibition of ligand binding, Adrenergic α2B (10 nM): 0.01 µM; for Percentage inhibition of ligand binding, Adrenergic α2B (30 nM): 30 nM compound, 0.03 µM; for Percentage inhibition of ligand binding, Adrenergic α2B (0.1 μM): 0.1 μM compound; for inhibition at 0.01 µM: read-out: Percentage inhibition of ligand binding, Adrenergic α2B (10 nM)
T1 sequence (P18089 1-450): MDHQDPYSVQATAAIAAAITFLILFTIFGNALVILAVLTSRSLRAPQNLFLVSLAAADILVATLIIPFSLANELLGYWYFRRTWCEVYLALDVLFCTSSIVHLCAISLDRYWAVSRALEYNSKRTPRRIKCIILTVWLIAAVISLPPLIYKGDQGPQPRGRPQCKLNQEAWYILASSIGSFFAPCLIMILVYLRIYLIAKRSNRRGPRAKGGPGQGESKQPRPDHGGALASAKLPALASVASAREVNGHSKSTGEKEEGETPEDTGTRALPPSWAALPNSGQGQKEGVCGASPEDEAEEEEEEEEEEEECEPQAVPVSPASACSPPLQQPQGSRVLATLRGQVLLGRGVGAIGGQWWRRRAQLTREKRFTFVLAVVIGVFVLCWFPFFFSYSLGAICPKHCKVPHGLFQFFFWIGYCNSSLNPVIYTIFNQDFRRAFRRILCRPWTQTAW
Procedure: To evaluate the activity of compounds in radioligand binding assays, Human adrenergic α2B receptor obtained from recombinant cell membrane from Milipore. Binding experiments were carried out in Tris-HCl buffer (50 mM Tris-HCl buffer, pH 7.4, 5 mM Mgcl2, 1 mM Cacl2, 0.2% BSA) as recommended by Milipore. […] Non-specific binding was estimated in the presence of 10 μM Rauwolscine. […] Compounds were screened at various concentrations, using 1% DMSO as vehicle. Biochemical assay results are presented as the percent Inhibition of specific binding in Table B1b, or estimated Ki values in Table B1c.

[2] = target: T2, Human adrenergic α2A receptor (Homo sapiens, UniProt P08913); test: Radioligand binding, adrenergic α2A (Protocol Group B); conditions: Protocol Group B; for Percentage inhibition of ligand binding, Adrenergic α2A (0.1 μM): 0.1 μM compound; for Percentage inhibition of ligand binding, Adrenergic α2A (0.3 μM) / inhibition at 0.3 µM: 0.3 μM compound; for inhibition at 0.3 µM: read-out: Percentage inhibition of ligand binding, Adrenergic α2A (0.3 μM)
T2 sequence (P08913 1-465): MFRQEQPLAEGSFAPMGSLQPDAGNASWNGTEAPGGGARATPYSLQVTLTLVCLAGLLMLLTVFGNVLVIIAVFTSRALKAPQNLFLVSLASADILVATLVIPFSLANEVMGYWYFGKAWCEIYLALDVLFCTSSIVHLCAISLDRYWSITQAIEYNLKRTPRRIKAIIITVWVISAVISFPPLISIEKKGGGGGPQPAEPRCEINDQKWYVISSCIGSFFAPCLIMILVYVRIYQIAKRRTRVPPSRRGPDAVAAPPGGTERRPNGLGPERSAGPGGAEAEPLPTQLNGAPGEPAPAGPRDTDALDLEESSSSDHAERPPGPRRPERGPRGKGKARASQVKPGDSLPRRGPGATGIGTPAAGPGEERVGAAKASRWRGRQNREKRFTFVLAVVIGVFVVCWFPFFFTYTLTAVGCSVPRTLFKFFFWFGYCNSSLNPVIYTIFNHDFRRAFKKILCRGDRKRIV
Procedure: To evaluate the activity of compounds in radioligand binding assays, Human adrenergic α2A receptor obtained from recombinant cell membrane from Milipore. Binding experiments were carried out in Tris-HCl buffer (50 mM Tris-HCl buffer, pH 7.4, 5 mM Mgcl2, 1 mM Cacl2, 0.2% BSA) as recommended by Milipore. Compounds were incubated with 2 nM [^3H]MK-912 for 60 min at 25° C. Non-specific binding was estimated in the presence of 10 μM Rauwolscine. Receptor proteins were harvested on 0.33% PEI(poly-ethylenemine) soaked GFC filter mat, the specifically bound [^3H]MK-912 were counted to determine total binding. Compounds were screened at various concentrations, using 1% DMSO as vehicle. percent inhibition of specific binding was determined. Biochemical assay results are presented as the percent Inhibition of specific binding in Table B1b, or estimated Ki values in Table B1c.

[3] = target: T3, Human adrenergic α1B receptor (Homo sapiens, UniProt P35368); test: Radioligand binding, adrenergic α1B (Protocol Group B); conditions: Protocol Group B; for Percentage inhibition of ligand binding, Adrenergic α1B (0.1 μM): 0.1 μM compound; for Percentage inhibition of ligand binding, Adrenergic α1B (0.3 μM): 0.3 μM compound
T3 sequence (P35368 1-520): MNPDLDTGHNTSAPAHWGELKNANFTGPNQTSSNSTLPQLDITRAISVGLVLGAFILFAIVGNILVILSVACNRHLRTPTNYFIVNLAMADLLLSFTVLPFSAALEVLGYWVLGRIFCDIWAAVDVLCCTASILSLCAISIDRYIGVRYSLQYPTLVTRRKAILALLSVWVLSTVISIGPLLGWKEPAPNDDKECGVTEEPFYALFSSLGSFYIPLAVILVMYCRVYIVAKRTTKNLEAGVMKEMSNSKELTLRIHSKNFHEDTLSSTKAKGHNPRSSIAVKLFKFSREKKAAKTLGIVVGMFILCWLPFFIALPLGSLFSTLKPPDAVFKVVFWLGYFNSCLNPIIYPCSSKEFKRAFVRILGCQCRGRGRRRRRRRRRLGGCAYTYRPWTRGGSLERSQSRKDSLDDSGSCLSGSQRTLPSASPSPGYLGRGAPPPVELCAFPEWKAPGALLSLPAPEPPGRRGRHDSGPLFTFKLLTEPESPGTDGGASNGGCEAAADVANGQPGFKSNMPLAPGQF
Procedure: To evaluate the activity of compounds in radioligand binding assays, Human adrenergic α1B receptor obtained from recombinant cell membrane from Milipore. Binding experiments were carried out in Tris-HCl buffer (50 mM Tris-HCl buffer, pH 7.4, 10 mM Mgcl2, 1 mM EDTA) as recommended by Milipore. Compounds were incubated with 0.3 nM [^3H]Prazosin for 60 min at 25° C. Non-specific binding was estimated in the presence of 10 μM prazosin. Receptor proteins were harvested on 0.33% PEI(poly-ethylenemine) soaked GFC filter mat, the specifically bound [^3H]Prazosin were counted to determine total binding. Compounds were screened at various concentrations, using 1% DMSO as vehicle. percent inhibition of specific binding was determined. Biochemical assay results are presented as the percent Inhibition of specific binding in Table B1b, or estimated Ki values in Table B1c.

Percentage inhibition of ligand binding, Adrenergic α2B (10 nM) [1] [%]	Percentage inhibition of ligand binding, Adrenergic α2B (30 nM) [1]	Percentage inhibition of ligand binding, Adrenergic α2B (0.1 μM) [1] [%]	Percentage inhibition of ligand binding, Adrenergic α2A (0.1 μM) [2] [%]	Percentage inhibition of ligand binding, Adrenergic α2A (0.3 μM) ([2]; 0.3 µM) [%]	Percentage inhibition of ligand binding, Adrenergic α1B (0.1 μM) ([3]; 0.1 µM) [%]	Percentage inhibition of ligand binding, Adrenergic α1B (0.3 μM) [3] [%]	inhibition at 0.3 µM [2] [%]	Percentage inhibition of ligand binding, Adrenergic α2A (0.3 μM) [2] [%]	inhibition at 0.01 µM [1] [%]	Percentage inhibition of ligand binding, Adrenergic α1B (0.1 μM) [3] [%]	Structure (SMILES)
11	32% and 36%	79	8	20	15	24					OC(Cn1c2c(c3cc(F)ccc31)C1CCCN1CC2)c1ccncc1 (single isomer, unassigned) [18d]
−13	−12%	6	−7	1	−5	−1					Cc1cc(C)c2c(c1)c1c(n2CC(C)(O)c2ccncc2)CCN2CCCC12 (single isomer, unassigned) [19c]
−9	−4%	−1	−8	−5	−8	−5					Cc1cc(C)c2c(c1)c1c(n2CC(C)(O)c2ccncc2)CCN2CCCC12 (single isomer, unassigned) [19d]
6	10%	33	3		0	15	20				Cc1ccc2c(c1)c1c(n2CC(O)c2cccnc2)CC2CCCN2C1 (single isomer, unassigned) [27a]
26	48%	67	10		13	41		20			Cc1ccc2c(c1)c1c(n2CC(O)c2cccnc2)CC2CCCN2C1 (single isomer, unassigned) [27b]
	−2%	45	0	−21	1	−4			3		CC(O)(Cn1c2c(c3cc(F)ccc31)C1CCCN1CC2)c1ccncc1 (single isomer, unassigned) [31c]
4	−11%	17	−11	6	0	11					CC(O)(Cn1c2c(c3cc(F)ccc31)C1CCCN1CC2)c1ccncc1 (single isomer, unassigned) [31d]
0	14%		−5	9		13				−1	Cc1ccc2c(c1)c1c(n2CC(C)(O)c2cnc3ccccc3c2)CCN(C)C1 (single isomer, unassigned) [32b]
	−12%	−11	−9	−5	−2	−10			21		Cc1ccc2c(c1)c1c(n2CC(O)c2ccncc2)CNC2CCCC12 (single isomer, unassigned) [34a]
15	6%	32	−7	−2	−16	12					Cc1ccc2c(c1)c1c(n2CC(O)c2ccncc2)CNC2CCCC12 (single isomer, unassigned) [34b]
14	2%	25	−2	−1	6	22					Cc1ccc2c(c1)c1c(n2CC(O)c2ccncc2)CNC2CCCC12 (single isomer, unassigned) [34d]
8	−5%	−3	−16		−2	12	-5				Cc1ccc2c(c1)c1c(n2CC(O)c2ccncc2)CN(C)C2CCCC12 (single isomer, unassigned) [36a]
